According to paper PMC9737911 (2022):

Legend:
[1] = test system: OT-Bea-1bp (DNA, aptamer) TCGGGTGTGGGTGGCGTAAAGGGAGCA; assay: fluorescence quenching (FAM/BHQ1 beacon), single concentration; settings: 120 mM NaCl, 20 mM CaCl2; 20 mM Tris-HCl pH 7.5; 50 nM probe, 500 nM OTA; negligible fluorescence change
[2] = test system: OT-Bea-4bp (DNA, aptamer) CGATCGGGTGTGGGTGGCGTAAAGGGAGCATCG; assay: fluorescence quenching titration (FAM/BHQ1 beacon); settings: 120 mM NaCl, 2 mM CaCl2; 20 mM Tris-HCl pH 8.5, 0.1% Tween 20, room temperature, 50 nM probe
[3] = test system: OT-Bea-5bp (DNA, aptamer) GCGATCGGGTGTGGGTGGCGTAAAGGGAGCATCGC; assay: fluorescence quenching (FAM/BHQ1 beacon), single concentration; settings: 120 mM NaCl, 20 mM CaCl2; 20 mM Tris-HCl pH 7.5; 50 nM probe, 500 nM OTA; small signal change
[4] = test system: OT-Bea-2bp (DNA, aptamer) ATCGGGTGTGGGTGGCGTAAAGGGAGCAT; assay: as above; settings: 120 mM NaCl, 20 mM CaCl2; 20 mM Tris-HCl pH 7.5; 50 nM probe, 500 nM OTA; 37% quenching
[5] = test system: OT-Bea-3bp (DNA, aptamer) GATCGGGTGTGGGTGGCGTAAAGGGAGCATC; assay: as above; settings: 120 mM NaCl, 20 mM CaCl2; 20 mM Tris-HCl pH 7.5; 50 nM probe, 500 nM OTA; 41% quenching
[6] = test system: OT-Bea-4bp (DNA, aptamer) CGATCGGGTGTGGGTGGCGTAAAGGGAGCATCG; assay: as above; settings: 120 mM NaCl, 2 mM CaCl2; highest concentration tested 200 nM; no quenching

C[C@@H]1Cc2c(Cl)cc(C(=O)N[C@@H](Cc3ccccc3)C(=O)O)c(O)c2C(=O)O1 was tested, and the binding [1] was “weak”, the Kd [2] was 16 ± 2 nM and the binding [3] was “yes”. For the same compound, the binding [4] was “yes” and the binding [5] was “yes”.
With C[C@@H]1Cc2ccc(C(=O)N[C@@H](Cc3ccccc3)C(=O)O)c(O)c2C(=O)O1 the binding [6] was “no”.
With CCCC[C@@H](C)[C@@H](OC(=O)C[C@@H](CC(=O)O)C(=O)O)[C@H](C[C@@H](C)CCCCCC[C@@H](O)C[C@H](O)[C@H](C)N)OC(=O)C[C@@H](CC(=O)O)C(=O)O the binding [6] was “no”.
CCCC[C@@H](C)[C@@H](OC(=O)C[C@@H](CC(=O)O)C(=O)O)[C@H](C[C@@H](C)C[C@H](O)CCCC[C@@H](O)C[C@H](O)[C@H](C)N)OC(=O)C[C@@H](CC(=O)O)C(=O)O was tested, and the binding [6] was “no”.
With C[C@H]1CCCC(=O)CCC/C=C/c2cc(O)cc(O)c2C(=O)O1 the binding [6] was “no”.
